Columns and labels:
CYP450 1A2 [1] = target: T1, CYP450 1A2 (Homo sapiens, UniProt P05177); assay: metabolic power of the liver determined by methacetin metabolism at different dosages; type: in vivo; parameters: metabolized to ^13CO2 and paracetamol in the liver cells by the enzyme CYP450 1A2; from tissue; host or cells: liver of the living individual (in vivo); details: FIG. 2
T1 sequence (P05177 1-516): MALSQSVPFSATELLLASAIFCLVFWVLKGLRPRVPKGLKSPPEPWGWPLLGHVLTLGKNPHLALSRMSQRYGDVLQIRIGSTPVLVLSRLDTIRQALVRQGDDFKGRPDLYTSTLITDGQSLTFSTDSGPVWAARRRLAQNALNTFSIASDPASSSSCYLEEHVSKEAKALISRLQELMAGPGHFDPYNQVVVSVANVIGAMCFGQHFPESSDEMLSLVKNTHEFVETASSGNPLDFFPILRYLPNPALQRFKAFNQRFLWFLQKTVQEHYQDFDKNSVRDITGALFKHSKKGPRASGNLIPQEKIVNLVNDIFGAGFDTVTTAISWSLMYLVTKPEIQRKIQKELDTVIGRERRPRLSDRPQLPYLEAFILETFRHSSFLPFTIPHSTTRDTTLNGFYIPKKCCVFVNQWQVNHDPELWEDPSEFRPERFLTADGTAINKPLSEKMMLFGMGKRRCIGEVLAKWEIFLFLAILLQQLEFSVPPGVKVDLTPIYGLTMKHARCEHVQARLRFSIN
Procedure: The metabolic power was determined according to the formulae indicated above for different methacetin metabolisms observed after methacetin administration in different dosages. Specifically, 1 mg ^13C-labeled methacetin per kg bodyweight, 2 mg/kg, 4 mg/kg and 8 mg/kg were administered.
This non-linearity is expressed by the function L(n/M), wherein n denotes the number of substrate molecules, i.e. methacetin molecules, and M denotes the bodyweight in kg. This function L(n/M) forms part of the fitting curve represented in FIG. 2 by the interpolation curve between the single measurement points.

CYP450 1A2 [2] = target: T1, CYP450 1A2; details: in vivo
Procedure: As substrate, ^13C-labeled methacetin at a dose of 2 mg per kilogram bodyweight of the individual was administered to the individual, wherein the release period was shorter than 60 seconds. In the body of the individual the ^13C-labeled methacetin was metabolized in the liver to paracetamol and ^13C-labeled CO2. The latter was detected as product in the air exhaled by the individual.
1 DOB here refers to a change of the ^13CO2-to-^12CO2-ratio by a thousandth above the natural ratio. The obtained measured values, illustrated in FIG. 1, are subsequently fitted with a suitable model function. […] From this model function—with a function equation familiar as such—different parameters can now be derived which specify the function. […]
As methacetin is almost solely metabolized in the liver, with the specified metabolism dynamics it is possible to directly and immediately trace the metabolism of the administered substrate by the enzymes existing in the liver. […] Here, for instance the value of the maximum product concentration in the exhaled air Pmax allows a statement to be made about the number of the healthy liver cells and the liver volume which is thus available for metabolism; whereas the rise in the form of the time constant(s) of the model function, fitted to the measured values, allows statements to be made about the entrance velocity of the substrate into the liver cells. […]

SMILES: COc1ccc(NC(C)=O)cc1 [13C-labeled methacetin]
- dependence of the measured signals on dosage (CYP450 1A2 [1]; 1 mg per kg body weight): linear dependence
- dependence of the measured signals on dosage (CYP450 1A2 [1]; 2 mg/kg): linear dependence
- deviation from the linear behaviour (CYP450 1A2 [1]; 4 mg/kg): 10%
- deviation from the linear behaviour (CYP450 1A2 [1]; 8 mg/kg): more than 20%
- time point of half-maximum methacetine metabolism (t1/2) (CYP450 1A2 [2]): ~1.5 min
- time point of maximum methacetine metabolism (tmax) (CYP450 1A2 [2]): ~6.5 min

From US9560989B2, “Method for determining the metabolic capacity of at least one enzyme” (HUMEDICS GMBH, priority 2011, dated 2017)
